Experiments:
[1] = tested on: corn; assay: Test C pre-/postemergence test; type: in vivo, Zea mays; conditions: for Plant response rating, Corn: 31 g ai/ha, scale 0 to 100 (0 no effect, 100 complete control)
Outline: (§1)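 Compounds in a non-phytotoxic solvent with surfactant applied preemergence to seeded pots and, at the same time, postemergence to plants 2–18 cm tall (1- to 4-leaf stage). Paddy tests: pots flooded to 3 cm, compound applied into the water, depth held throughout.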

[2] = tested on: redroot pigweed; assay: Test A pre-/postemergence greenhouse test; type: in vivo, Amaranthus retroflexus; conditions: for Plant response rating, Pigweed: 0 to 100 scale where 0 is no effect and 100 is complete control; for Pigweed plant response rating: 0 to 100 scale
Outline: (§2)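 Pots of loam–sand soil sown with the test species are sprayed preemergence on the soil surface; emerged seedlings (1–2 leaves, 2–10 cm) are sprayed postemergence at the same time. The vehicle is a non-phytotoxic solvent mixture with surfactant. Injury is scored visually after ~10 d in greenhouse.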

[3] = tested on: downy brome; assay: Test C pre-/postemergence test; type: in vivo, Bromus tectorum; conditions: for Plant response rating, Bromegrass, Downy: 31 g ai/ha, scale 0 to 100 (0 no effect, 100 complete control)
Outline: as §1

[4] = tested on: yellow nutsedge; assay: Test C pre-/postemergence test; type: in vivo, Cyperus esculentus; conditions: for Plant response rating, Nutsedge, Yellow: 31 g ai/ha, scale 0 to 100 (0 no effect, 100 complete control)
Outline: as §1

[5] = tested on: wheat; assay: Test A pre-/postemergence greenhouse test; type: in vivo, Triticum aestivum; conditions: for Plant response rating, Wheat: 0 to 100 scale where 0 is no effect and 100 is complete control; for Wheat plant response rating: 0 to 100 scale
Outline: as §2

[6] = tested on: eastern black nightshade; assay: Test C pre-/postemergence test; type: in vivo, Solanum ptycanthum; conditions: for Plant response rating, Nightshade: 31 g ai/ha, scale 0 to 100 (0 no effect, 100 complete control)
Outline: as §1

[7] = tested on: johnsongrass; assay: Test C pre-/postemergence test; type: in vivo, Sorghum halepense; conditions: for Plant response rating, Johnsongrass: 31 g ai/ha, scale 0 to 100 (0 no effect, 100 complete control)
Outline: as §1

[8] = tested on: wheat; assay: Test C pre-/postemergence test; type: in vivo, Triticum aestivum; conditions: for Plant response rating, Wheat: 31 g ai/ha, scale 0 to 100 (0 no effect, 100 complete control)
Outline: as §1

[9] = tested on: morningglory; assay: Test C pre-/postemergence test; type: in vivo, Ipomoea coccinea; conditions: for Plant response rating, Morningglory: 31 g ai/ha, scale 0 to 100 (0 no effect, 100 complete control)
Outline: as §1

[10] = tested on: wild oat; assay: Test C pre-/postemergence test; type: in vivo, Avena fatua; conditions: for Plant response rating, Oat, Wild: 31 g ai/ha, scale 0 to 100 (0 no effect, 100 complete control)
Outline: as §1

[11] = tested on: velvetleaf; assay: Test C pre-/postemergence test; type: in vivo, Abutilon theophrasti; conditions: for Plant response rating, Velvetleaf: 31 g ai/ha, scale 0 to 100 (0 no effect, 100 complete control)
Outline: as §1

[12] = tested on: woolly cupgrass; assay: Test C pre-/postemergence test; type: in vivo, Eriochloa villosa; conditions: for Plant response rating, Cupgrass, Woolly: 31 g ai/ha, scale 0 to 100 (0 no effect, 100 complete control)
Outline: as §1

[13] = tested on: velvetleaf; assay: Test A pre-/postemergence greenhouse test; type: in vivo, Abutilon theophrasti; conditions: for Plant response rating, Velvetleaf: 0 to 100 scale where 0 is no effect and 100 is complete control; for Velvetleaf plant response rating: 0 to 100 scale
Outline: as §2

[14] = tested on: duck salad; assay: Test C flooded paddy test; type: in vivo, Heteranthera limosa; conditions: Flood
Outline: (§3)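 Test compounds are applied straight into paddy water held 3 cm above the soil surface, with that flood maintained for the whole test. After 13 to 15 days in the greenhouse, each species is scored visually relative to controls.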

[15] = tested on: giant foxtail; assay: Test C pre-/postemergence test; type: in vivo, Setaria faberii; conditions: for Plant response rating, Foxtail, Giant: 31 g ai/ha, scale 0 to 100 (0 no effect, 100 complete control)
Outline: as §1

[16] = tested on: rice; assay: Test C flooded paddy test; type: in vivo, Oryza sativa; conditions: Flood
Outline: as §3

[17] = tested on: catchweed bedstraw; assay: Test C pre-/postemergence test; type: in vivo, Galium aparine
Outline: as §1

[18] = 62 g ai/ha, Preemergence, scale 0 to 100
[19] = 125 g ai/ha, preemergence, scale 0 (no effect) to 100 (complete control)
[20] = preemergence, 250 g ai/ha, scale 0 (no effect) to 100 (complete control)
[21] = Postemergence, 500 g ai/ha, 0 is no effect, 100 is complete control
[22] = Preemergence, 125 g ai/ha, 0 no effect, 100 complete control
[23] = Preemergence, 500 g ai/ha, 0 no effect, 100 complete control
[24] = 62 g ai/ha, scale 0 to 100 (0 no effect, 100 complete control)
[25] = 250 g ai/ha, scale 0 to 100, 0 no effect, 100 complete control, 13 to 15 days
[26] = preemergence, 125 g ai/ha, scale 0 (no effect) to 100 (complete control)
[27] = Postemergence, 125 g ai/ha, 0 is no effect, 100 is complete control
[28] = 31 g ai/ha, scale 0 to 100 (0 no effect, 100 complete control)
[29] = 62 g ai/ha, scale 0 to 100, 0 no effect, 100 complete control, 13 to 15 days
[30] = 125 g ai/ha, scale 0 to 100, 0 no effect, 100 complete control, 13 to 15 days

## C#CCOc1c(CS(=O)(=O)c2cccc[n+]2[O-])c(C(F)(F)F)nn1C [Compound 103]
[1]; [18]
  Corn plant response rating: 0
[1]; [19]
  Corn plant response rating: 65
[1]; Preemergence
  Plant response rating, Corn: 0
[1]; [20]
  Corn plant response rating: 95
[2]; Postemergence, 125 g ai/ha
  Plant response rating, Pigweed: 30
[2]; [21]
  Pigweed plant response rating: 60
[2]; [22]
  Pigweed plant response rating: 60
[2]; [23]
  Pigweed plant response rating: 100
[3]; [18]
  Bromegrass, Downy plant response rating: 0
[3]; [19]
  Bromegrass, Downy plant response rating: 70
[3]; Preemergence
  Plant response rating, Bromegrass, Downy: 0
[3]; [20]
  Bromegrass, Downy plant response rating: 70
[4]; [18]
  Nutsedge, Yellow plant response rating: 70
[4]; [19]
  Nutsedge, Yellow plant response rating: 85
[4]; Preemergence
  Plant response rating, Nutsedge, Yellow: 0
[4]; [20]
  Nutsedge, Yellow plant response rating: 85
[5]; Postemergence, 125 g ai/ha
  Plant response rating, Wheat: 20
[5]; [21]
  Wheat plant response rating: 50
[5]; [22]
  Wheat plant response rating: 10
[5]; [23]
  Wheat plant response rating: 80
[6]; [18]
  Nightshade plant response rating: 90
[6]; [19]
  Nightshade plant response rating: 90
[6]; Preemergence
  Plant response rating, Nightshade: 90
[6]; [20]
  Nightshade plant response rating: 98
[7]; [18]
  Johnsongrass plant response rating: 100
[7]; [19]
  Johnsongrass plant response rating: 100
[7]; Preemergence
  Plant response rating, Johnsongrass: 30
[7]; [20]
  Johnsongrass plant response rating: 100
[8]; [18]
  Wheat plant response rating: 0
[8]; [19]
  Wheat plant response rating: 25
[8]; Preemergence
  Plant response rating, Wheat: 0
[8]; [20]
  Wheat plant response rating: 98
[9]; [18]
  Morningglory plant response rating: 55
[9]; [19]
  Morningglory plant response rating: 80
[9]; Preemergence
  Plant response rating, Morningglory: 0
[9]; [20]
  Morningglory plant response rating: 98
[10]; [18]
  Oat, Wild plant response rating: 60
[10]; [19]
  Oat, Wild plant response rating: 100
[10]; Preemergence
  Plant response rating, Oat, Wild: 40
[10]; [20]
  Oat, Wild plant response rating: 100
[11]; [18]
  Velvetleaf plant response rating: 55
[11]; [19]
  Velvetleaf plant response rating: 80
[11]; Preemergence
  Plant response rating, Velvetleaf: 0
[11]; [20]
  Velvetleaf plant response rating: 100
[12]; [18]
  Cupgrass, Woolly plant response rating: 30
[12]; [19]
  Cupgrass, Woolly plant response rating: 85
[12]; Preemergence
  Plant response rating, Cupgrass, Woolly: 0
[12]; [20]
  Cupgrass, Woolly plant response rating: 100
[13]; Postemergence, 125 g ai/ha
  Plant response rating, Velvetleaf: 40
[13]; [21]
  Velvetleaf plant response rating: 70
[13]; [22]
  Velvetleaf plant response rating: 20
[13]; [23]
  Velvetleaf plant response rating: 80
[14]; [24]
  Plant response rating, Ducksalad: 20
[14]; [25]
  Plant response rating, Ducksalad: 70
[15]; [18]
  Foxtail, Giant plant response rating: 95
[15]; [19]
  Foxtail, Giant plant response rating: 100
[15]; Preemergence
  Plant response rating, Foxtail, Giant: 55
[15]; [20]
  Foxtail, Giant plant response rating: 100
[16]; [24]
  Plant response rating, Rice: 0
[16]; [25]
  Plant response rating, Rice: 0
[17]; [18]
  Galium plant response rating: 98
[17]; [19]
  Galium plant response rating: 98
[17]; [20]
  Galium plant response rating: 100

## Cc1cc[n+]([O-])c(S(=O)(=O)Cc2c(C(F)(F)F)nn(C)c2OCC(F)(F)F)c1 [Compound 31]
[1]; [18]
  Corn plant response rating: 50
[1]; Preemergence
  Plant response rating, Corn: 0
[1]; Preemergence, 250 g ai/ha
  Plant response rating (0 to 100), Corn: 98
[1]; [26]
  Corn plant response rating: 85
[2]; [27]
  Pigweed plant response rating: 80
[2]; [21]
  Pigweed plant response rating: 80
[2]; [22]
  Pigweed plant response rating: 100
[2]; Preemergence, 500 g ai/ha
  Plant response rating, Pigweed: 100
[3]; [18]
  Bromegrass, Downy plant response rating: 50
[3]; Preemergence
  Plant response rating, Bromegrass, Downy: 0
[3]; Preemergence, 250 g ai/ha
  Plant response rating (0 to 100), Bromegrass, Downy: 80
[3]; [26]
  Bromegrass, Downy plant response rating: 70
[4]; [18]
  Nutsedge, Yellow plant response rating: 100
[4]; Preemergence
  Plant response rating, Nutsedge, Yellow: 60
[5]; [27]
  Wheat plant response rating: 50
[5]; [21]
  Wheat plant response rating: 60
[5]; [22]
  Wheat plant response rating: 60
[5]; Preemergence, 500 g ai/ha
  Plant response rating, Wheat: 80
[6]; [18]
  Nightshade plant response rating: 95
[6]; Preemergence
  Plant response rating, Nightshade: 95
[7]; [18]
  Johnsongrass plant response rating: 100
[7]; Preemergence
  Plant response rating, Johnsongrass: 100
[7]; Preemergence, 250 g ai/ha
  Plant response rating (0 to 100), Johnsongrass: 100
[8]; [18]
  Wheat plant response rating: 30
[8]; Preemergence
  Plant response rating, Wheat: 0
[9]; [18]
  Morningglory plant response rating: 100
[9]; Preemergence
  Plant response rating, Morningglory: 85
[10]; [18]
  Oat, Wild plant response rating: 60
[10]; Preemergence
  Plant response rating, Oat, Wild: 5
[11]; [18]
  Velvetleaf plant response rating: 100
[11]; Preemergence
  Plant response rating, Velvetleaf: 55
[12]; [18]
  Cupgrass, Woolly plant response rating: 100
[12]; Preemergence
  Plant response rating, Cupgrass, Woolly: 95
[12]; Preemergence, 250 g ai/ha
  Plant response rating (0 to 100), Cupgrass, Woolly: 100
[13]; [27]
  Velvetleaf plant response rating: 50
[13]; [21]
  Velvetleaf plant response rating: 60
[13]; [22]
  Velvetleaf plant response rating: 30
[13]; Preemergence, 500 g ai/ha
  Plant response rating, Velvetleaf: 90
[14]; [28]
  Plant response rating, Ducksalad: 45
[14]; [29]
  Plant response rating, Ducksalad: 45
[14]; [30]
  Plant response rating, Ducksalad: 80
[14]; [25]
  Plant response rating, Ducksalad: 90
[15]; [18]
  Foxtail, Giant plant response rating: 100
[15]; Preemergence
  Plant response rating, Foxtail, Giant: 100
[15]; Preemergence, 250 g ai/ha
  Plant response rating (0 to 100), Foxtail, Giant: 100
[16]; [28]
  Plant response rating, Rice: 0
[16]; [29]
  Plant response rating, Rice: 0
[16]; [30]
  Plant response rating, Rice: 60
[16]; [25]
  Plant response rating, Rice: 70
[17]; [18]
  Galium plant response rating: 100
[17]; Preemergence, 31 g ai/ha, scale 0 to 100 (0 no effect, 100 complete control)
  Plant response rating, Galium: 100
[17]; Preemergence, 250 g ai/ha
  Plant response rating (0 to 100), Galium: 100

— patent US20100298141A1, “SUBSTITUTED PYRIDINE N-OXIDE HERBICIDES” (E. I. DU PONT DE NEMOURS AND COMPANY, priority 2007, published 2010)
